For assay [1], the system named is cancer cells. Description: Antiproliferative activity against cancer cells (design rationale). The class given is cell-based. From the text: We used Chloro and Nitro functional groups as substituent's on the aromatic ring due to their greater electron withdrawing effect at ortho (or) para (or) meta (or) both positions along with different amino acid linkages on bis-benzylidine piperidone moiety. Amino acids were chosen based in their physical characteristics like very hydrophobic (phenylalanine), strongly basic and hydrophilic (lysine), basic and hydrophilic (histidine) and amphiphilic (glycine). Commercially available Fmoc and Boc protected amino acids were used in the synthesis, and they were evaluated for their antiproliferatory activity against cancer cells.
Next we synthesized another set of compounds by converting free amine functionality to its Acetate (Ac), Acrolyl (Acr) and Benzoyl […] analogs as these units are part of many anticancer drugs because of their smaller size and feasibility to form inter molecular hydrogen bonds with proteins.
In the RA195 molecule two amino functionalities of lysine can provide more flexibility to make better analogs.

Assay [2] has as its target purified 20S proteasomes (Homo sapiens, UniProt P28072+P28074+Q99436). Nature of the assay: 20S proteolytic activity assay. It is filed as biochemical. The note with it: 1 μM, 30 min. Here is the method: Actin was used as a loading control. […] In FIG. 9C-E, purified 20S proteasomes were treated for 30 min with or without compounds (1 μM) prior to the addition of the specific fluorogenic substrate for chymotryptic (9C), tryptic (9D) or PGPH (9E) hydrolytic proteasome capacities. […] DMSO was added to all samples to a final concentration of 0.1% (upper panel). The effect of DMSO is highlighted by including ubiquitin—AMC (0.5 μM) hydrolysis with 2 nM UCH37 lacking DMSO (orange, bottom panel). In FIG. 9H, purified 19S RP (500 nM) in buffer was treated with corresponding compounds 30 min at 37° C. and AMC cleavage was measured with a fluorometer for 20 min. Ubal was used as a positive control.
Release of free AMC by the enzyme reaction was determined by measuring its fluorescence at 380 nm (excitation) and 440 nm (emission). The graphs shown are representative of at least three independent determinations and each data point is the mean of ±SD of triplicate determinations.
20S proteasome cleaves the chymotryptic substrate and releases fluorescent AMC.

Assay [3] concerns U266 cells. Nature of the assay: Active caspase-3 by FACS. The class given is cell-based. The settings on record: 0.5 μM, 8 h. Here is the method: U266 cells were treated with RA195 (0.5 μM) and Bz(0.5 μM) for the period of 8 h. Cells were stained for PE-conjugated Caspase-3 antibody and measured active caspase-3 by FACS.
A general note: A flow cytometer gives signals particle by particle.

Assay [4] deals with NCI-H929 cells. Description: Active caspase-3 by FACS. It is filed as cell-based, human. The note with it: 0.5 μM, 8 h. Here is the method:
NCI-H929 cells were treated with RA195 (0.5 μM) and Bz(0.5 μM) for the period of 8 h. Cells were stained for PE-conjugated Caspase-3 antibody and measured active caspase-3 by FACS.

Assay [5] relates to tetraubiquitin-firefly luciferase (4UbFL) reporter in HeLa cells. Description: Cell culture assay for luciferase (4UbFL reporter). It is filed as cell-based, human. The settings on record: 4 hr treatment. Here is the method:
Sub-confluent cultures of HeLa cells were transfected with 4UbFL or FL plasmids using Lipofectamine 2000 reagent (Life Technologies, Carlsbad, Calif.). […] Luciferase activity in cell lysate was determined with a luciferase assay kit (Promega, Madison, Wis.) according to the manufacturer's instructions. Bioluminescence was measured by using a Glomax Multidetection system (Promega, Madison, Wis., USA).
HeLa cells were transiently transfected with tetra ubiquitin-fused firefly luciferase (4UB-FL) plasmid. After 48 h, the transfected cells were treated with titrations of the indicated compounds for 4 h, and luciferase activity was measured. Data is expressed as a 4UB-FL fold change compared to untreated cells.

Assay [6] concerns TNFα-induced NFκB activation in 293 cells. Nature of the assay: NFκB/FL reporter assay. It is filed as cell-based. The note with it: TNFα 10 ng/ml, 7 h. How it is done: 293 cells transiently transfected with either NFκB/FL (firefly luciferase reporter construct under control of an NFκB-driven promoter) or control CMV promoter-driven FL reporter construct were treated with compounds and TNFα (10 ng/ml) for 7 h. Upon the addition of luciferin, bioluminescence was measured in cell lysates using a luminometer. Results can be seen in FIG. 20.
293 cells transiently transfected with either NFκB/FL or control FL reporter genes were treated with compounds and TNFα (10 ng/ml) for 7 h. Upon the addition of luciferin, bioluminescence was measured in cell lysates using a luminometer.
(In a reporter assay the amount or activity of a reporter protein is the signal.)

Assay [7] relates to HeLa cells. Nature of the assay: Cell surface HSP90 staining. It is filed as cell-based, human. From the text:
Cell surface HSP90 was detected by staining with purified anti-HSP90 mAb (Stressgen), followed by PE-conjugated anti-mouse IgG1. The data were acquired with a FACSCalibur and analyzed using CellQuest software.

The test system of assay [8] is HeLa. Description: Cell viability after 48-hr treatment (Table 1). The note with it: Homo sapiens, HeLa; 48-hr treatment; XTT assay; read-out: IC50, HeLa. It is filed as cell-based, human. Here is the method: (§1) Cell viability was assayed using CellTiter 960 AQueous One Solution Reagent (Promega, Madison, Wis.). Cells seeded at the concentration of 1,000 cells/well for HeLa, 5,000 cells/well for ES2 and HCT116 and 10,000-20,000 cells/well for other cell lines in 100 μL medium in 96-well plate were treated with RA series compounds at specified concentrations. […]

The test system of assay [9] is OVCAR3. Nature of the assay: Cell viability after 48-hr treatment (Table 1). The settings on record: Homo sapiens, OVCAR-3, XTT assay. It is filed as cell-based, human. Here is the method:
as §1

The subject of assay [10] is NCl-H929. Nature of the assay: Cell viability after 48-hr treatment (Table 1). The class given is cell-based, human. The note with it: Homo sapiens, XTT assay. How it is done: (§2) Cells seeded at the concentration of 1,000 cells/well for HeLa, 5,000 cells/well for ES2 and HCT116 and 10,000-20,000 cells/well for other cell lines in 100 μL medium in 96-well plate were treated with RA series compounds at specified concentrations. […]
(Tetrazolium dyes change colour on reduction, which living cells bring about.)

Assay [11] has as its system HT3. Nature of the assay: Cell viability after 48-hr treatment (Table 1). The class given is cell-based. The note with it: Homo sapiens, HT-3; 48-hr treatment; XTT assay; read-out: IC50, HT3. How it is done: as §2
In assay [12] the test system is HaCaT. Description: Cell viability after 48-hr treatment (Table 1). The settings on record: Homo sapiens, HaCaT; 48-hr treatment; XTT assay; read-out: IC50, HaCaT. It is filed as cell-based. How it is done:
as §2

Assay [13] deals with RPMI8226. Description: Cell viability after 48-hr treatment (Table 1). The note with it: Homo sapiens, RPMI-8226, XTT assay. It is filed as cell-based. Here is the method:
as §2

The subject of assay [14] is SiHa. Nature of the assay: Cell viability after 48-hr treatment (Table 1). The note with it: Homo sapiens, SiHa; 48-hr treatment; XTT assay; read-out: IC50, SiHa. It is filed as cell-based. Here is the method:
as §2

The subject of assay [15] is SKOV3. Description: Cell viability after 48-hr treatment (Table 1). It is filed as cell-based. The note with it: Homo sapiens, SK-OV-3; 48-hr treatment; XTT assay; read-out: IC50, SKOV3. Here is the method:
as §1

Assay [16] relates to FaDu. Nature of the assay: Cell viability after 48-hr treatment (Table 1). The class given is cell-based. The settings on record: Homo sapiens, FaDu; 48-hr treatment; XTT assay; read-out: IC50, FaDu. Here is the method:
as §1

For assay [17], the system named is MM.1S. Nature of the assay: Cell viability after 48-hr treatment (Table 1). The note with it: Homo sapiens, MM1.S, XTT assay. The class given is cell-based. Here is the method:
as §1

The subject of assay [18] is C33A. Nature of the assay: Cell viability after 48-hr treatment (Table 1). It is filed as cell-based. The settings on record: Homo sapiens, C-33-A; 48-hr treatment; XTT assay; read-out: IC50, C33A. Here is the method: as §1
For assay [19], the system named is HOK-16B. Nature of the assay: Cell viability after 48-hr treatment (Table 1). The settings on record: 48-hr treatment; XTT assay; read-out: IC50, HOK-16B. The class given is cell-based. How it is done:
(§3) Cell viability was assayed using CellTiter 960 AQueous One Solution Reagent (Promega, Madison, Wis.). Cells seeded at the concentration of 1,000 cells/well for HeLa, 5,000 cells/well for ES2 and HCT116 and 10,000-20,000 cells/well for other cell lines in 100 μL medium in 96-well plate were treated with RA series compounds at specified concentrations. After the indicated periods, cells were incubated according to the manufacturer's protocol with the MTS labeling mixture for 1-2 hr and absorbance at 490 nm measured using a Benchmark Plus microplate spectrophotometer (BIO-RAD).

In assay [20] the test system is CasKi. Description: Cell viability after 48-hr treatment (Table 1). The class given is cell-based. The note with it: Homo sapiens, Ca-Ski; 48-hr treatment; XTT assay; read-out: IC50, CasKi. How it is done: as §3

SMILES strings stand for the structures. Structures can show the parent of a compound that is named as a salt.

Turning to `Cl.NC(Cc1ccccc1)C(=O)N1C/C(=C\c2ccc(Cl)c(Cl)c2)C(=O)/C(=C/c2ccc(Cl)c(Cl)c2)C1` (stereo not drawn) [RA190D], the “antiproliferative potency among analogs” value in assay [1] is given as “Neither of these compounds was as good as RA190”.
For `Cl.N[C@@H](Cc1ccccc1)C(=O)N1C/C(=C\c2ccc([N+](=O)[O-])cc2)C(=O)/C(=C/c2ccc([N+](=O)[O-])cc2)C1` [RA183], the “chymotryptic activity of the 20S proteasome (Suc-LLVY-AMC)” value in [2] is “do not”. Besides, the “active caspase-3” value in assay [3] and in assay [4] was “caused an increase in caspase-3 expression” each time. Besides, in assay [1], the “antiproliferative potency among analogs” value is listed as “higher potency”.
In the case of `O=C1/C(=C/c2ccc(Cl)c(Cl)c2)CN(C(=O)[C@H](Cc2ccccc2)NC(=O)c2ccccn2)C/C1=C\c1ccc(Cl)c(Cl)c1` [RA190P], the “antiproliferative potency among analogs” value in assay [1] is reported as “Neither of these compounds was as good as RA190”.
Take `CC(=O)N[C@@H](CCCCN)C(=O)N1C/C(=C\c2ccc(Cl)c(Cl)c2)C(=O)/C(=C/c2ccc(Cl)c(Cl)c2)C1.Cl` [RA195Ac]: in [5], the “proteasome inhibition by 4UbFL stabilization (relative potency)” value is reported as “more potent than the parent molecule RA195”. Further, the “active caspase-3” value in [3] and in [4] was “caused an increase in caspase-3 expression” throughout. For the same molecule, in [6], the “TNFα-induced NFκB activation” value is given as “inhibited TNFα-induced NFκB activation”.
For `N.N.[Cl][Pt][Cl]` [cisplatin], the “surface display of HSP90” value in assay [7] is reported as “did not induce surface display of HSP90”.
As for `Cl.NCCCC[C@H](NC(=O)OCc1ccccc1Cl)C(=O)N1C/C(=C\c2ccc([N+](=O)[O-])cc2)C(=O)/C(=C/c2ccc([N+](=O)[O-])cc2)C1` [RA195Bn], the “proteasome inhibition by 4UbFL stabilization (relative potency)” value in [5] was “more potent than the parent molecule RA195”. For the same molecule, the “active caspase-3” value in [3] and in assay [4] was “caused an increase in caspase-3 expression” in each case.
The IC50 is the concentration needed to halve the response being measured. In the case of `CC(=O)N[C@@H](Cc1ccccc1)C(=O)N1C/C(=C\c2ccc(Cl)c(Cl)c2)C(=O)/C(=C/c2ccc(Cl)c(Cl)c2)C1` [RA190Ac, 3,5-bis(3,4-dichlorobenzylidene)-1-(N-(1-oxo-S-3-phenyl-1-propan-2-yl)acetamide)-piperidin-4-one-HCl salt], the IC50 is 170 nM in [8]; 2000 nM in assay [9]; 75 nM in [10]; above 5000 nM in assay [11]; above 2500 nM in assay [12]; 150 nM in assay [13]. The IC50 in [14] was 1000 nM; in assay [15], above 2500 nM; in assay [16] it was above 2500 nM; in [17], 50 nM; in assay [18], above 5000 nM; in assay [19], 750 nM. In addition, the IC50 in assay [20] was found to be 300 nM.

The values are drawn from patent publication US10500198B2, “Bis-benzylidine piperidone proteasome inhibitor with anticancer activity” (The Johns Hopkins University, priority 2013, dated 2019).
